Assay results from US9161541B2, “Pesticide composition comprising propamocarb-hydrochloride and an insecticide active substance” (priority 2006, dated 2015).

What was measured:
Type in all cases: in vivo
[1] = system: larvae of the beet army worm (Spodoptera exigua); assay: Spodoptera exigua test (cabbage leaf dip, larval mortality); conditions: mortality after 6 days; rate of application 100 ppm
Description: (§1) Solvent: 7 parts by weight of dimethylformamide
(§2) Emulsifier: 2 parts by weight of alkylaryl polyglycolether
(§3) To produce a suitable preparation of active compound, 1 part by weight of active compound is mixed with the stated amount of solvent and emulsifier, and the concentrate is diluted with emulsifier-containing water to the desired concentration. Cabbage leaves (Brassica oleracea) are treated by being dipped into the preparation of the active compound at the desired concentration and are infested with larvae of the beet army worm (Spodoptera exigua) as long as the leaves are still moist. After a period of time of 6 days, the mortality is determined. 100% means that all the caterpillars have been killed; 0% means that none of the caterpillars have been killed.

[2] = system: larvae of the fall army worm (Spodoptera frugiperda); assay: Spodoptera frugiperda test (cabbage leaf dip, larval mortality); conditions: mortality after 4 days
Description: as §1, §2
as §3, with “fall” for “beet”, “frugiperda)” for “exigua)”, “4” for “6”

[3] = system: larvae of the diamond black moth Plutella xylostella; assay: Plutella xylostella test (cabbage leaf dip, larval mortality); conditions: mortality after 4 days
Description: as §1, §2
as §3, with “diamond black moth Plutella xylostella” for “beet army worm (Spodoptera exigua)”, “4” for “6”

Compound	Efficacy (%) [1]	Efficacy (%) ([2]; rate of application 20 ppm)	Efficacy (%) ([2]; rate of application 100 ppm)	further results
CN/C(=N\[N+](=O)[O-])NCc1cnc(Cl)s1 [clothianidin]	45%	0%	–	–
O=[N+]([O-])NC1=NCCN1Cc1ccc(Cl)nc1 [imidacloprid]	–	0%	–	–
CCCOC(=O)NCCCN(C)C.Cl [propamocarb, propyl[3-(dimethylamino)propyl]carbamate hydrochloride]	0%	–	0%	Efficacy (%) ([3]; rate of application 200 ppm): 25%; Efficacy (%) ([2]; rate of application 200 ppm): 0%
N#C/N=C1\SCCN1Cc1ccc(Cl)nc1 [thiacloprid]	–	–	–	Efficacy (%) ([3]; rate of application 20 ppm): 20%
CN1COCN(Cc2cnc(Cl)s2)/C1=N\[N+](=O)[O-] [thiamethoxam]	–	–	0%	–
